In brackets after ≈: the same amount, converted by molar mass.
Columns and labels:
[1] = tested on: Mtb H37Rv in murine bone marrow-derived macrophages; test: in vitro antitubercular activity in infected murine bone marrow-derived macrophages; format: cell-based, Mycobacterium tuberculosis; details: primary BMDM infected with H37Rv; doses 1 and 0.1 μg/mL
[2] = tested on: mycobacterial ATP synthase; parameters: method as in PMID 20521931; details: selectivity; cited from earlier work
[3] = tested on: H37Rv strain of Mtb; parameters: method as in PMID 22155815; details: cited from earlier work
[4] = parameters: method as in PMID 35112802; details: TargoSphere platform; cited from earlier work
[5] = estimated; 25 °C; cited from earlier work
[6] = estimated; cited from earlier work
[7] = cited from earlier work
[8] = tested on: mycobacteria; details: cited from earlier work
[9] = parameters: method as in PMID 22155815, PMID 34370588; details: in vitro; cited from earlier work
[10] = parameters: method as in PMID 22155815; details: oral route; cited from earlier work
[11] = coadministration with high-fat meals

COc1nc2ccc(Br)cc2cc1[C@@H](c1ccccc1)[C@@](O)(CCN(C)C)c1cccc2ccccc12 [BDQ, Bedaquiline]
reduction in CFU/mL [1]: significant reductions in CFU/mL
higher affinity for mycobacterial ATP synthase versus eukaryotic ATP synthase [2]: > 20,000
minimum bactericidal concentration (MBC) [3]: 0.3 µg/mL (≈ 0.54 µM)
minimum inhibitory concentration (MIC) [3]: 0.06 µg/mL (≈ 0.108 µM)
loading capacity [4]: 5–7 % of the total mass
solubility in aqueous media [5]: 2 ng/mL (≈ 0.0036 µM)
logP [6]: 7.74
bioavailability ([7]; administered orally): high bioavailability
median tmax ([7]; administered orally): ~5 h
increase of AUC with food [7, 11]: 2 fold
increase of Cmax with food [7, 11]: 2 fold
protein binding ([7]; in vivo): > 99%
terminal elimination half-life ([7]; in vivo): 4–5 months
volume of distribution ([7]; in vivo): 164 L

CNCCC(O)(c1cccc2ccccc12)C(c1ccccc1)c1cc2cc(Br)ccc2nc1OC (stereo not drawn) [M2, N-desmethyl-bedaquiline]
antimycobacterial activity, fold lower than BDQ [8]: 4–6 fold
cytotoxicity and phospholipidogenesis [9]: higher cytotoxicity and phospholipidogenesis
AUCLung:AUCplasma ratio [10]: 100–200

C[C@H]1COc2c(N3CCN(C)CC3)c(F)cc3c(=O)c(C(=O)O)cn1c23 [levofloxacin]
encapsulation efficiency [4]: 66–80%
